Laboratory results from PubChem BioAssay AID2060485 (Molecular Pharmacology Branch, DTP, NCI, 2025).

Test system: A375 multi-cell spheroids with HUVEC/MSC, viability
Experiment: Anticancer human tumor A375 cell line growth inhibition [GQUAD];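 note: spheroids exposed to compounds for seven days before readout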
Settings: for IC50: curve of first compound; for viability, T/C: stronger effect = lower value; active = viability on the fitted dose curve at most 10% of control; inactive = the rest
Description: DNA G-quadruplex Stabilizer Agents in Combinations in Complex Spheroids
A high-throughput screen of multi-cell type tumor spheroids was designed to identify active combinations of DNA G-quadruplex stabilizer agents and targeted small molecules. Complex spheroids include a stromal component modeled by human endothelial cells (HUVEC) and fibroblasts modeled by human mesenchymal stem cells (MSCs). The concentration ranges selected for each drug and investigational agent were based upon clinically achievable concentrations if the clinical Cmax of the agent was known.
Compounds. The drugs and investigational agents: pidnarulex (CX-5461; NSC782164), APTO-253 (NSC789042), BRACO-19 (NSC847499), peposertib (NSC802822), ceralasertib (NSC780249), elimusertib (NSC800525), camonsertib (NSC841442), AZD-1390 (NSC803789), olaparib (NSC753686), talazoparib (NSC767125), ART-558 (NSC835418), sotorasib (NSC818433), MRTX-1133 (NSC836407), SN-38 (NSC673596), topotecan (NSC609699), etoposide (NSC141540), doxorubicin (NSC123127), gemcitabine (NSC613327), 5-fluorouracil (NSC19893), paclitaxel (NSC125973), vemurafenib (NSC761431), panobinostat (NSC761190), R-306465 (JNJ-16241199; NSC773264), adavosertib (NSC754352), TP-3654 (NSC805149), carboplatin (NSC241240), KSQ-4279 (NSC840948), and staurosporine (NSC755774) were obtained from the National Cancer Institute (NCI) Developmental Therapeutics Program Chemical Repository (34). The FDA-approved anticancer drug set is available from the NCI Developmental Therapeutics Program. […] The stock solutions were prepared in dimethyl sulfoxide (DMSO, Sigma-Aldrich, St. Louis, MO, cat. D2650) at 800-fold the tested concentration and stored at -70 degrees C prior to their use. All drugs and investigational agents were tested over a range starting from a high concentration at or near the clinical Cmax and decreasing in half-log increments. If the clinical Cmax for an agent had not been determined, the highest concentration tested was 10 microM.
2.3 Cell Culture. All cells were maintained in an incubator at 37 degrees C and 5% CO2 with 95% humidity. The PDC lines were cultured according to standard operating procedures established by the NCI PDMR. All PDCs were thawed and cultured in Matrigel-coated flasks prepared with a working solution of 1X Ham's F-12 nutrient mix, without supplementation (Invitrogen, cat. 11765054), 100 U/mL penicillin-streptomycin (Invitrogen, cat. 15140122), and 2.5% Matrigel (Corning Inc., cat. 354248) for the first three passages. The 857933-349-R-J2-PDC line was cultured in 6C/Colon 1B media, which includes advanced DMEM/F-12 (Thermo Fisher Scientific, cat. 12634028), 10 mM HEPES (Thermo Fisher Scientific, cat. 15630080), 1X GlutaMAX supplement (Thermo Fisher Scientific, cat. 35050061), 0.1 mg/mL primocin (InvivoGen, cat. ant-pm-2), 10% defined fetal bovine serum, heat inactivated (HyClone Laboratories Inc., cat. SH30070.03HI), 50% L-WRN conditioned media (ATCC, cat. CRL-3276), 1.25 mM N-Acetyl-L-cysteine (Sigma-Aldrich, cat. A9165), 10 mM nicotinamide (Sigma-Aldrich, cat. N0636), 1X B-27 supplement (Thermo Fisher Scientific, cat. 17504044), 1X N-2 supplement (Thermo Fisher Scientific, cat. 17502048), 10 microM Y-27632 dihydrochloride (Tocris Bioscience, cat. 1254), and 50 ng/mL human EGF recombinant protein (Thermo Fisher Scientific, cat. PHG0311). The 485176-168-R4-J1-PDC line was cultured in Panc media, which includes all 6C/Colon 1B media components plus 100 ng/mL human FGF-10 (Thermo Fisher Scientific, cat. 100-26), 500 nM SB-431542 (Selleckchem, cat. S1067), and gastrin (Tocris, cat. 3006).
[…]

[1] = second compound 0.0316 µM, first compound 0.000999 µM
[2] = second compound 0.0316 µM, first compound 0.00316 µM
[3] = second compound 0.0316 µM, first compound 0.00999 µM
[4] = second compound 0.0316 µM, first compound 0.0316 µM
[5] = second compound 0.0316 µM, first compound 0.0999 µM
[6] = second compound 0.0316 µM, first compound 0.316 µM
[7] = second compound 0.1 µM, first compound 0.000999 µM
[8] = second compound 0.1 µM, first compound 0.00316 µM
[9] = second compound 0.1 µM, first compound 0.00999 µM
[10] = second compound 0.1 µM, first compound 0.0316 µM
[11] = second compound 0.1 µM, first compound 0.0999 µM
[12] = second compound 0.1 µM, first compound 0.316 µM
[13] = second compound 0.316 µM, first compound 0.000999 µM
[14] = second compound 0.316 µM, first compound 0.00316 µM
[15] = second compound 0.316 µM, first compound 0.00999 µM
[16] = second compound 0.316 µM, first compound 0.0316 µM
[17] = second compound 0.316 µM, first compound 0.0999 µM
[18] = second compound 0.316 µM, first compound 0.316 µM
[19] = second compound 1 µM, first compound 0.000999 µM
[20] = second compound 1 µM, first compound 0.00316 µM
[21] = second compound 1 µM, first compound 0.00999 µM
[22] = second compound 1 µM, first compound 0.0316 µM
[23] = second compound 1 µM, first compound 0.0999 µM
[24] = second compound 1 µM, first compound 0.316 µM
[25] = second compound 3.16 µM, first compound 0.000999 µM
[26] = second compound 3.16 µM, first compound 0.00316 µM
[27] = second compound 3.16 µM, first compound 0.00999 µM
[28] = second compound 3.16 µM, first compound 0.0316 µM
[29] = second compound 3.16 µM, first compound 0.0999 µM
[30] = second compound 3.16 µM, first compound 0.316 µM
[31] = second compound 10 µM, first compound 0.000999 µM
[32] = second compound 10 µM, first compound 0.00316 µM
[33] = second compound 10 µM, first compound 0.00999 µM
[34] = second compound 10 µM, first compound 0.0316 µM
[35] = second compound 10 µM, first compound 0.0999 µM
[36] = second compound 10 µM, first compound 0.316 µM

CC[C@@]1(O)C(=O)OCc2c1cc1n(c2=O)Cc2cc3c(CN(C)C)c(O)ccc3nc2-1 + CN(C)c1ccc(Nc2c3ccc(NC(=O)CCN4CCCC4)cc3nc3cc(NC(=O)CCN4CCCC4)ccc23)cc1
44.7 nM: IC50 (second compound 0.0316 µM)
45.3 nM: IC50 (second compound 0.1 µM)
45.9 nM: IC50 (second compound 10 µM)
49.5 nM: IC50 (second compound 3.16 µM)
active: viability, T/C [12] 10.9% | viability, T/C [24] 9.06%
47.4 nM: IC50 (second compound 1 µM)
inactive: viability, T/C [1] 104% | viability, T/C [2] 107% | viability, T/C [3] 104% | viability, T/C [4] 63.4% | viability, T/C [5] 18.5% | viability, T/C [6] 9.04% | viability, T/C [7] 112% | viability, T/C [8] 105% | viability, T/C [9] 96.2% | viability, T/C [10] 64.2% | viability, T/C [11] 20.4% | viability, T/C [13] 101% | viability, T/C [14] 107% | viability, T/C [15] 108% | viability, T/C [16] 58% | viability, T/C [17] 19.8% | viability, T/C [18] 10.9% | viability, T/C [19] 114% | viability, T/C [20] 106% | viability, T/C [21] 102% | viability, T/C [22] 67% | viability, T/C [23] 18.9% | viability, T/C [25] 103% | viability, T/C [26] 102% | viability, T/C [27] 102% | viability, T/C [28] 68.8% | viability, T/C [29] 20.6% | viability, T/C [30] 12.7% | viability, T/C [31] 102% | viability, T/C [32] 103% | viability, T/C [33] 107% | viability, T/C [34] 63.2% | viability, T/C [35] 22.4% | viability, T/C [36] 9.58%
39.6 nM: IC50 (second compound 0.316 µM)

CCc1c2c(nc3ccc(O)cc13)-c1cc3c(c(=O)n1C2)COC(=O)[C@]3(O)CC + CN(C)c1ccc(Nc2c3ccc(NC(=O)CCN4CCCC4)cc3nc3cc(NC(=O)CCN4CCCC4)ccc23)cc1
< 0.999 nM: IC50 (second compound 0.0316 µM) | IC50 (second compound 0.1 µM) | IC50 (second compound 0.316 µM) | IC50 (second compound 1 µM) | IC50 (second compound 3.16 µM) | IC50 (second compound 10 µM)
active: viability, T/C [4] 15% | viability, T/C [5] 5.91% | viability, T/C [6] 0.85% | viability, T/C [9] 11.6% | viability, T/C [10] 13.6% | viability, T/C [11] 5.7% | viability, T/C [12] 0.92% | viability, T/C [15] 11.6% | viability, T/C [16] 15.8% | viability, T/C [17] 5.11% | viability, T/C [18] 1.17% | viability, T/C [22] 15.3% | viability, T/C [23] 5% | viability, T/C [24] 0.92% | viability, T/C [27] 10.9% | viability, T/C [28] 12.6% | viability, T/C [29] 6.28% | viability, T/C [30] 1.02% | viability, T/C [34] 13% | viability, T/C [35] 6.82% | viability, T/C [36] 0.96%
inactive: viability, T/C [1] 41.2% | viability, T/C [2] 16.1% | viability, T/C [3] 10.6% | viability, T/C [7] 39% | viability, T/C [8] 14.4% | viability, T/C [13] 40.8% | viability, T/C [14] 14.2% | viability, T/C [19] 44.3% | viability, T/C [20] 17.9% | viability, T/C [21] 12.2% | viability, T/C [25] 45.6% | viability, T/C [26] 14.8% | viability, T/C [31] 46.9% | viability, T/C [32] 18.2% | viability, T/C [33] 10.9%
